From US9511073B2, “Aromatic amides and uses thereof” (TAXIS Pharmaceuticals, Inc., priority 2011, dated 2016)
≈ marks a conversion by molar mass, not a printed value. Read-outs that look alike come from different tables or passages of the source.

What was measured:
[1] = system: Staphylococcus aureus (Isolate ID ATCC 29213); test: Bacterial assay: MIC by broth microdilution or agar dilution (CLSI), S. aureus ATCC 29213; type: cell-based; details: Staphylococcus aureus
Outline: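 Activity is binned (A ≤0.25 μg/mL; B >0.25–1.0; C >1.0–16; D >16 μg/mL) from MICs determined per CLSI by broth microdilution or agar dilution, on S. aureus ATCC 29213 plus an FtsZ-G196A mutant strain.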

[2] = system: FtsZ-G196A Staphylococcus aureus (Isolate ID GG/190723/sa/1.2); test: Bacterial assay: MIC, FtsZ G196A mutant strain; type: cell-based
Description: Compounds are tested for antimicrobial activity by susceptibility testing in liquid or on solid media. Minimum inhibitory concentrations (MICs) for compounds against each strain are determined by the broth microdilution or agar dilution method according to the guidelines of the Clinical Laboratories and Standards Institute, formerly the National Committee for Clinical Laboratory Standards (Clinical Laboratories and Standards Institute. Methods for Dilution Antimicrobial Susceptibility Tests for Bacteria That Grow Aerobically; Approved Standard—Seventh Edition. Document M7-A7. CLSI, Wayne, Pa., 2006; Clinical Laboratories and Standards Institute). The bacterial strains tested include S. aureus (Staphylococcus aureus (Isolate ID ATCC 29213)) and an FtsZ mutant of this isolate (FtsZ-G196A Staphylococcus aureus (Isolate ID GG/190723/sa/1.2)). Compound MICs were determined to be in the following activity ranges “A” activity≦0.25 μg/mL; “B” activity>0.25 μg/mL-1.0 μg/mL; “C” activity>1.0 μg/mL-16 μg/mL; “D” activity>16 μg/mL and ND=not determined. The bracketed entries indicate entantiomer(s) and their activity.
The comparative activity of selected compounds having a bromo-substituted oxazole against their corresponding non-brominated analogues is shown in Table 4.

[3] = Pharmacokinetic assay: plasma concentration by LC/MS/MS after single intravenous or peroral dose of 3 mg/kg; type: in vivo; details: 3 mg/kg IV dosing in mice
Description: The pharmacokinetic profiles of selected comparator compounds A-N in Table 6 and compounds of the invention were determined by measuring the compound concentration in plasma by LC/MS/MS following a single intravenous or peroral administration of the compounds at a dose of 3 mg/kg. The concentrations described are the mean plasma concentrations at each time point from three animals. Intravenous dose formulation was administered as a single bolus dose through the tail vein. Oral dose formulation was administered to animals by an oral gavage needle. In both cases the dose volume was 5.0 mL/kg. Blood was collected from anesthetized mice through a capillary guided into the retro-orbital plexus. The collected blood was centrifuged to obtain plasma and the compounds extracted into methanol prior to determining the compound concentration by LC/MS/MS. The results are shown graphically in FIG. 1 and for the AUC and CL parameters in Table 6.

[4] = ATCC29213, read-out: S. aureus MIC (μg/mL) Activity Range, S. aureus (ATCC29213)
[5] = read-out: MIC (μg/mL) FtsZ G196A mutant strain
[6] = ATCC29213, read-out: MIC (μg/mL) S. aureus (ATCC29213), Table 5, racemate and enantiomers
[7] = read-out: MIC (μg/mL) G196A mutant strain

| SMILES | MIC [1, 4] [µg/mL] | clearance ([3]; mouse, plasma) [mL/min/kg] | AUC ([3]; mouse, plasma, read-out: AUC) [ng·h/mL] | other results |
| --- | --- | --- | --- | --- |
| COC(=O)NCC(Oc1ccc(F)c(C(N)=O)c1F)c1nc(-c2ccc(C(F)(F)F)cc2)co1 (centres unmarked) [Compound 287, methyl (2-(3-carbamoyl-2,4-difluorophenoxy)-2-(4-(4-(trifluoromethyl)phenyl)oxazol-2-yl)ethyl)carbamate] | > 16 |  |  | MIC [2, 5]: > 256 µg/mL |
| NC(=O)c1c(F)ccc(OCc2nc3cc(-c4ccccc4)cnc3s2)c1F [B] |  |  |  | AUC [3]: 500 ng·h/mL; CL [3]: 91 mL/min/kg |
| NC(=O)c1c(F)ccc(O[C@H](COC(=O)CCC(=O)O)c2nc(-c3ccc(C(F)(F)F)cc3)c(Br)o2)c1F [Compound 181, (R)-4-(2-(5-bromo-4-(4-(trifluoromethyl)phenyl)oxazol-2-yl)-2-(3-carbamoyl-2,4-difluorophenoxy)ethoxy)-4-oxobutanoic acid] | 1 to 16 (≈ 1.65 to 26.3 µM) | 16 | 3000 |  |
| CCOc1cnc2sc(COc3ccc(F)c(C(N)=O)c3F)nc2c1 [E] |  |  |  | AUC [3]: 200 ng·h/mL; CL [3]: 203 mL/min/kg |
| COc1ccc(-c2nc([C@H](C)Oc3ccc(F)c(C(N)=O)c3F)oc2Br)cc1 [Compound 5A] | 1 to 16 (≈ 2.21 to 35.3 µM) |  |  | MIC [1, 6]: 16 µg/mL (≈ 35.3 µM); MIC [2, 7]: > 256 µg/mL |
| COC(=O)NCC(Oc1ccc(F)c(C(N)=O)c1F)c1nc(-c2ccc(C(F)(F)F)cc2)c(Br)o1 (centres unmarked) [Compound 288, methyl (2-(5-bromo-4-(4-(trifluoromethyl)phenyl)oxazol-2-yl)-2-(3-carbamoyl-2,4-difluorophenoxy)ethyl)carbamate] | 0.25 to 1 (≈ 0.443 to 1.77 µM) |  |  | MIC [2, 5]: 16 µg/mL (≈ 28.4 µM) |
| NC(=O)c1c(F)ccc(OCc2nc(-c3ccc(Cl)nc3)cs2)c1F [Compound F, 3-((4-(6-chloropyridin-3-yl)thiazol-2-yl)methoxy)-2,6-difluorobenzamide] |  | 139 | 400 |  |
| COc1ncc(-c2csc(COc3ccc(F)c(C(N)=O)c3F)n2)s1 [J, 2,6-difluoro-3-((2′-methoxy-4,5′-bithiazol-2-yl)methoxy)benzamide] |  | 180 | 300 |  |
| COc1cnc(-c2csc(COc3ccc(F)c(C(N)=O)c3F)n2)cn1 [G, 2,6-difluoro-3-((4-(5-methoxypyrazin-2-yl)thiazol-2-yl)methoxy)benzamide] |  | 82 | 600 |  |
| Cc1noc(CCc2csc(COc3ccc(F)c(C(N)=O)c3F)n2)n1 [L, 2,6-difluoro-3-((4-(2-(3-methyl-1,2,4-oxadiazol-5-yl)ethyl)thiazol-2-yl)methoxy)benzamide] |  | 59 | 800 |  |
| NC(=O)c1c(F)ccc(O[C@@H](CO)c2nc(-c3ccc(F)cc3F)c(Br)o2)c1F [Compound 233A, (S)-3-(1-(5-bromo-4-(2,4-difluorophenyl)oxazol-2-yl)-2-hydroxyethoxy)-2,6-difluorobenzamide] | > 16 |  |  | MIC [1, 6]: 32 µg/mL (≈ 67.3 µM); MIC [2, 7]: > 256 µg/mL |
| CCCc1oc(COc2ccc(F)c(C(N)=O)c2F)nc1-c1ccc(Cl)cc1 [K] |  |  |  | AUC [3]: 400 ng·h/mL; CL [3]: 137 mL/min/kg |
| NC(=O)c1c(F)ccc(OCc2nc(-c3cnc(Cl)nc3)cs2)c1F [H, 3-((4-(2-chloropyrimidin-5-yl)thiazol-2-yl)methoxy)-2,6-difluorobenzamide] |  | 173 | 300 |  |
| COc1ccc(-c2nc(C(C)Oc3ccc(F)c(C(N)=O)c3F)oc2Br)cc1 (racemic) [Compound 5] | 0.25 to 1 (≈ 0.552 to 2.21 µM) |  |  | MIC [1, 6]: 1 µg/mL (≈ 2.21 µM); MIC [2, 7]: 32 µg/mL (≈ 70.6 µM) |
| CC(Oc1ccc(F)c(C(N)=O)c1F)c1nc(-c2ccc(OC(F)(F)F)cc2)c(Cl)o1 (centres unmarked) [Compound 21, 3-(1-(5-chloro-4-(4-(trifluoromethoxy)phenyl)oxazol-2-yl)ethoxy)-2,6-difluorobenzamide] | < 0.25 |  |  | AUC [3]: 1600 ng·h/mL; CL [3]: 31 mL/min/kg |
| COc1ccc(-c2nc([C@@H](C)Oc3ccc(F)c(C(N)=O)c3F)oc2Br)cc1 [Compound 5B] | 0.25 to 1 (≈ 0.552 to 2.21 µM) |  |  | MIC [1, 6]: 0.5 µg/mL (≈ 1.1 µM); MIC [2, 5]: 16 µg/mL (≈ 35.3 µM); MIC [2, 7]: 16 µg/mL (≈ 35.3 µM) |
| C[C@@H](Oc1ccc(F)c(C(N)=O)c1F)c1nc(-c2ccc(C(F)(F)F)cc2)c(Br)o1 [Compound 184, (R)-3-(1-(5-bromo-4-(4-(trifluoromethyl)phenyl)oxazol-2-yl)ethoxy)-2,6-difluorobenzamide] | < 0.25 |  |  | MIC [2, 5]: 0.5 µg/mL (≈ 1.02 µM) |
| NC(=O)c1c(F)ccc(OC(CNC(=O)c2ccccc2)c2nc(-c3ccc(C(F)(F)F)cc3)c(Br)o2)c1F (centres unmarked) [Compound 292, 3-(2-benzamido-1-(5-bromo-4-(4-(trifluoromethyl)phenyl)oxazol-2-yl)ethoxy)-2,6-difluorobenzamide] | < 0.25 |  |  | MIC [2, 5]: 1 µg/mL (≈ 1.64 µM) |
| Cc1ccc(-c2csc(COc3ccc(F)c(C(N)=O)c3F)n2)cn1 [Compound C, 2,6-difluoro-3-((4-(6-methylpyridin-3-yl)thiazol-2-yl)methoxy)benzamide] |  | 130 | 400 |  |
| CCc1oc(COc2ccc(F)c(C(N)=O)c2F)nc1-c1ccc(OC)cc1 [I, 3-((5-ethyl-4-(4-methoxyphenyl)oxazol-2-yl)methoxy)-2,6-difluorobenzamide] |  |  |  | AUC [3]: 200 ng·h/mL; CL [3]: 319 mL/min/kg |
| NC(=O)c1c(F)ccc(O[C@H](CO)c2nc(-c3ccc(F)cc3F)c(Br)o2)c1F [Compound 233B, (R)-3-(1-(5-bromo-4-(2,4-difluorophenyl)oxazol-2-yl)-2-hydroxyethoxy)-2,6-difluorobenzamide] | < 0.25 |  |  | MIC [1, 6]: 0.25 µg/mL (≈ 0.526 µM); MIC [2, 7]: 8 µg/mL (≈ 16.8 µM) |
| C=CCc1oc(COc2ccc(F)c(C(N)=O)c2F)nc1-c1cccc(O)c1 [Compound N, 3-((5-allyl-4-(3-hydroxyphenyl)oxazol-2-yl)methoxy)-2,6-difluorobenzamide] |  | 270 | 200 |  |
| CCCc1oc(COc2ccc(F)c(C(N)=O)c2F)nc1-c1cccc(O)c1 [Compound M, 2,6-difluoro-3-((4-(3-hydroxyphenyl)-5-propyloxazol-2-yl)methoxy)benzamide] |  | 369 | 100 |  |
| NC(=O)c1c(F)ccc(OC(CNC(=O)c2ccccc2)c2nc(-c3ccc(C(F)(F)F)cc3)co2)c1F (centres unmarked) [Compound 289, 3-(2-benzamido-1-(4-(4-(trifluoromethyl)phenyl)oxazol-2-yl)ethoxy)-2,6-difluorobenzamide] | 1 to 16 (≈ 1.88 to 30.1 µM) |  |  | MIC [2, 5]: > 256 µg/mL |
| CC(Oc1ccc(F)c(C(N)=O)c1F)c1nc(-c2ccc(C(F)(F)F)cc2)c(Br)o1 (centres unmarked) [Compound 27, 3-(1-(5-bromo-4-(4-(trifluoromethyl)phenyl)oxazol-2-yl)ethoxy)-2,6-difluorobenzamide] | < 0.25 |  |  | AUC [3]: 2200 ng·h/mL; CL [3]: 22 mL/min/kg |
| CC(Oc1ccc(F)c(C(N)=O)c1F)c1nc(-c2ccc(OC(F)(F)F)cc2)c(Br)o1 (centres unmarked) [Compound 16, 3-(1-(5-bromo-4-(4-(trifluoromethoxy)phenyl)oxazol-2-yl)ethoxy)-2,6-difluorobenzamide] | 0.25 to 1 (≈ 0.493 to 1.97 µM) |  |  | AUC [3]: 1400 ng·h/mL; CL [3]: 36 mL/min/kg |
| NC(=O)c1c(F)ccc(OCc2nc(-c3ccc(Cl)cc3)no2)c1F [Compound A, 3-((3-(4-chlorophenyl)-1,2,4-oxadiazol-5-yl)methoxy)-2,6-difluorobenzamide] |  | 52 | 900 |  |
| COc1ccc(-c2nc(COc3ccc(F)c(C(N)=O)c3F)sc2-c2ccc(N(C)C)nc2)cc1 [D, 3-((5-(6-(dimethylamino)pyridin-3-yl)-4-(4-methoxyphenyl)thiazol-2-yl)methoxy)-2,6-difluorobenzamide] |  | 55 | 900 |  |
| NC(=O)c1c(F)ccc(OC(COC2CCCCO2)c2nc(-c3ccc(C(F)(F)F)cc3)c(Br)o2)c1F (centres unmarked) [Compound 105, 3-(1-(5-bromo-4-(4-(trifluoromethyl)phenyl)oxazol-2-yl)-2-((tetrahydro-2H-pyran-2-yl)oxy)ethoxy)-2,6-difluorobenzamide] | 0.25 to 1 (≈ 0.423 to 1.69 µM) |  |  |  |
| Cc1cc(CNC(=O)OCC(Oc2ccc(F)c(C(N)=O)c2F)c2nc(-c3ccc(C(F)(F)F)cc3)c(Br)o2)nn1C (centres unmarked) [Compound 213, 2-(5-bromo-4-(4-(trifluoromethyl)phenyl)oxazol-2-yl)-2-(3-carbamoyl-2,4-difluorophenoxy)ethyl ((1,5-dimethyl-1H-pyrazol-3-yl)methyl)carbamate] | 0.25 to 1 (≈ 0.38 to 1.52 µM) |  |  |  |
